These results are taken from patent publication US4473557A, “3"-Deoxystreptomycin production thereof and pharmaceutical compositions containing same” (Zaidan Hojin Biseibutsu Kagaku Kenkyu Kai, priority 1982, dated 1984).

Values after ≈ are worked out from the molar mass of the structure shown. Read-outs that look alike come from different tables or passages of the source. Bounds are passed on as bounds.

The subject of one data set is ICR mice. Nature of the data set: Acute toxicity by intravenous injection in mice. The conditions noted are these: dosage of 4 mg/kg (so in the source).
Data set [1] relates to streptomycin-resistant bacteria. Kind of data set: Activity against streptomycin-resistant bacteria. The conditions noted are these: variety of streptomycin-resistant bacteria. The format is cell-based. From the text:
(§1) Minimum inhibitory concentrations (mcg/ml) of streptomycin and of the parent 3"-deoxydihydrostreptomycin were also estimated in the same manner as above for the comparison purpose and are shown in Table 1 below.

The subject of data set [2] is Mycobacterium smegmatis 607. Nature of the data set: Minimum inhibitory concentration, serial dilution on nutrient agar. The format is cell-based.
Source text: as §1

The test system of a further data set is Escherichia coli ML 1629. The description is as above. Type of data set: cell-based.
Source text: as §1

A further data set deals with Escherichia coli K-12. The data set is described as above. The format is cell-based.
Source text: as §1

A further data set has as its system Salmonella typhi T-63. The description is as above. The format is cell-based. The conditions noted are these: Salmonella enterica, 17 h.
Source text: as §1

In the next data set the test system is Sarcia lutea 1001. The description is as above. The format is cell-based. The conditions noted are these: 17 h.
Source text: as §1

Data set [3] deals with Pseudomonas aeruginosa A3. The description is as above. The format is cell-based.
Source text: as §1

Data set [4] relates to Pseudomonas aeruginosa No. 12. The data set is described as above. Type of data set: cell-based.
Source text: as §1

In the next data set the test system is Escherichra coli ML 1630. The description is as above. Type of data set: cell-based. The conditions noted are these: 37° C., 17 hours.
Source text: as §1

Data set [5] deals with Bacillus subtilis NRRL B558. The data set is described as above. Type of data set: cell-based.
Source text: as §1

Data set [6] relates to Staphylococcus aureus 209 P. The data set is described as above. Type of data set: cell-based.
Source text: as §1

Data set [7] relates to Escherichia coli JR66/W677. The data set is described as above. The format is cell-based. The conditions noted are these: 37° C., 17 hours.
Source text: as §1

A further data set concerns Escherichia coli W 677. The description is as above. The format is cell-based.
Source text: as §1

Data set [8] concerns Escherichia coli C600 R135. The description is as above. The conditions noted are these: C600R135, 17 h. Type of data set: cell-based.
Source text: as §1

A further data set can be described thus: in vivo. Conditions: mouse, iv.
The next data set deals with resistant bacteria. The conditions noted are these: Kokai No. 105154/77; Journal of Antibiotics Vol. 29, 978 (1976); cited from earlier work.
Where [9] appears, read: Mycolicibacterium smegmatis, Mycobacterium smegmatis 607, nutrient agar, 37° C., 17 hours, read-out: MIC.
Where [10] appears, read: K12, Escherichia coli K-12, nutrient agar, 37° C., 17 hours, read-out: MIC.
The mark [11] stands for this setting: Pseudomonas aeruginosa A3, nutrient agar, 37° C., 17 hours, read-out: MIC.
[12] abbreviates: Pseudomonas aeruginosa No. 12, nutrient agar, 37° C., 17 hours, read-out: MIC.
The mark [13] stands for this setting: NRRLB558, Bacillus subtilis NRRL B558, nutrient agar, 37° C., 17 hours, read-out: MIC.
Setting [14] is: W677, Escherichia coli W 677, nutrient agar, 37° C., 17 hours, read-out: MIC.
[15] abbreviates: Staphylococcus aureus, 209P, 17 h.

As to `CNC1CC(O)C(CO)OC1OC1C(OC2C(O)C(O)C(NC(=N)N)C(O)C2NC(=N)N)OC(C)C1(O)C=O` (stereo not shown) [3"-Deoxystreptomycin, 3"-deoxystreptomycin], the “survival for more than 14 days” value in the data set with ICR mice is listed as “all the treated mice survived for more than 14 days”. Also, the “activity against streptomycin-resistant bacteria” value in data set [1] is reported as “active against a variety of streptomycin-resistant bacteria”. Also, the MIC in data set [2] (setting [9]) is 0.78 µg/mL (≈ 1.38 µM); in the data set with Escherichia coli ML 1629 (ML1629, Escherichia coli ML 1629, nutrient agar, 37° C., 17 hours, read-out: MIC.) it was 1.56 µg/mL (≈ 2.76 µM); in the data set on Escherichia coli K-12 (setting [10]), 1.56 µg/mL (≈ 2.76 µM); in the data set with Salmonella typhi T-63 it was 0.78 µg/mL (≈ 1.38 µM); against Sarcia lutea 1001 it was 1.56 µg/mL (≈ 2.76 µM); in [3] (setting [11]) it was 6.25 µg/mL (≈ 11.1 µM). In addition, the MIC was 25 µg/mL (≈ 44.2 µM) in data set [4] (setting [12]); 3.12 µg/mL (≈ 5.52 µM) with Escherichra coli ML 1630; 1.56 µg/mL (≈ 2.76 µM) in [5] (setting [13]); 3.12 µg/mL (≈ 5.52 µM) in [6] (Staphylococcus aureus 209 P, nutrient agar, 37° C., 17 hours, read-out: MIC.); 12.5 µg/mL (≈ 22.1 µM) in [7]; 1.56 µg/mL (≈ 2.76 µM) in the data set with Escherichia coli W 677 (setting [14]). Besides, the MIC in data set [8] came to 3.12 µg/mL (≈ 5.52 µM). The LD50 at 336 h in the data set “in vivo” is greater than 200 mg/kg.
Take `CNC1CC(O)C(CO)OC1OC1C(OC2C(O)C(O)C(NC(=N)N)C(O)C2NC(=N)N)OC(C)C1(O)CO` (stereo not shown) [3"-Deoxydihydrostreptomycin, 3"-deoxydihydrostreptomycin]: the MIC in data set [2] (setting [9]) worked out at 0.78 µg/mL (≈ 1.37 µM); in the data set on Escherichia coli ML 1629 (Escherichia coli, ML1629, 17 h) it was 3.12 µg/mL (≈ 5.5 µM); with Escherichia coli K-12 (setting [10]) it was 1.56 µg/mL (≈ 2.75 µM); in the data set with Salmonella typhi T-63, 3.12 µg/mL (≈ 5.5 µM); in the data set on Sarcia lutea 1001 it was 3.12 µg/mL (≈ 5.5 µM); in data set [3] (setting [11]), 12.5 µg/mL (≈ 22 µM). In addition, the MIC in data set [4] (setting [12]) amounted to 25 µg/mL (≈ 44 µM); in the data set with Escherichra coli ML 1630, 1.56 µg/mL (≈ 2.75 µM); in data set [5] (setting [13]), 1.56 µg/mL (≈ 2.75 µM); in [6] (setting [15]), 3.12 µg/mL (≈ 5.5 µM); in data set [7], 12.5 µg/mL (≈ 22 µM); in the data set with Escherichia coli W 677 (setting [14]), 1.56 µg/mL (≈ 2.75 µM). The minimal inhibitory concentration (MIC) in [8] turned out to be 3.12 µg/mL (≈ 5.5 µM). Moreover, the “activity against the resistant bacteria” value with resistant bacteria is “active against the resistant bacteria”.
As for `[H]/N=C(/N)N[C@H]1[C@H](O)[C@@H](O)[C@H](O[C@@H]2O[C@@H](C)[C@](O)(C=O)[C@H]2O[C@@H]2O[C@@H](CO)[C@H](O)[C@@H](O)[C@@H]2NC)[C@@H](N/C(N)=N\[H])[C@@H]1O` [Streptomycin, streptomycin], the MIC in [2] (Mycolicibacterium smegmatis, 607, 17 h) stood at 1.56 µg/mL (≈ 2.68 µM); against Escherichia coli ML 1629 (Escherichia coli, ML1629, 17 h) it was 100 µg/mL (≈ 172 µM); against Escherichia coli K-12 (Escherichia coli, K12, 17 h), 1.56 µg/mL (≈ 2.68 µM); in the data set with Salmonella typhi T-63, 25 µg/mL (≈ 43 µM); in the data set on Sarcia lutea 1001 it was 1.56 µg/mL (≈ 2.68 µM); in data set [3] (Pseudomonas aeruginosa, A3, 17 h), 6.25 µg/mL (≈ 10.7 µM). The MIC in [4] (Pseudomonas aeruginosa, NO.12, 17 h) was 25 µg/mL (≈ 43 µM); with Escherichra coli ML 1630, greater than 100 µg/mL; in data set [5] (Bacillus subtilis, NRRLB558, 17 h), 0.78 µg/mL (≈ 1.34 µM); in [6] (setting [15]) it was 3.12 µg/mL (≈ 5.36 µM); in data set [7] it was greater than 100 µg/mL; in the data set on Escherichia coli W 677 (Escherichia coli, W677, 17 h), 1.56 µg/mL (≈ 2.68 µM). The same compound returned an MIC in data set [8] of 50 µg/mL (≈ 86 µM).

A word on the MIC: it is the lowest concentration that inhibits growth of the organism. As a reminder, the LD50 is the dose at which mortality reaches 50%. A high value points to lower toxicity.
